According to article PMC5078989, “Targeted inhibition of the COP9 signalosome for treatment of cancer” (Nature Communications, 2016):
pEC50: −log10 of the molar value.

Test system: panel of cancer cell lines
Test: Cell viability (CellTiter-Glo) dose-response across cancer cell line panel;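 as to pEC50: after 72 h compound incubation with CellTiter-Glo ATP readout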
Assay type: cell-based, human
Settings: for pEC50: Homo sapiens
Text: Next, we explored the effect of CSN5 inhibition on the viability of cancer cells. To obtain a comprehensive picture, we generated dose–response curves with a CSN5 inhibitor across more than 500 cancer cell lines in a previously described standardized setting[47] (Supplementary Data 1).
A standardized CellTiter-Glo Assay (Promega #G7570) based on the quantification of ATP was applied according to the manufacturer's protocol to measure the amount of viable cells in culture. In brief, cells were seeded into 384-well plates at optimal density for each cell line. After 4 h, compounds were added at different concentrations in growth medium and incubated for another 72 h in a humidifying chamber at 37 °C and 5% CO2. […] EC50 values were calculated from the plot of percentage of inhibition versus inhibitor concentration using the nonlinear regression analysis software Origin 7.5SR6 (OriginLab Corp.).

CC(C)C[C@H](NC(=O)[C@H](Cc1ccccc1)NC(=O)c1cnccn1)B(O)O [Bortezomib]
pEC50 (SR-786, SR-786): 8.65 | pEC50 (ST486, ST486): 8.20 | pEC50 (SU-DHL10, SU-DHL-10): 7.84 | pEC50 (SU-DHL-4, SU-DHL-4): 8.48 | pEC50 (SU-DHL-8, SU-DHL-8): 8.42 | pEC50 (SUM52, cell line SUM-52): 8.26 | pEC50 (SUM52PE): 8.21 | pEC50 (SUP-M2, SUP-M2): 8.48 | pEC50 (SW480, SW480): 8.15 | pEC50 (SW837, SW837): 8.23 | pEC50 (SW948, SW948): 8.14 | pEC50 (SW1088, SW 1088): 8.23 | pEC50 (SW1271, cell line SW 1271): 7.67 | pEC50 (SW1353, SW 1353): 7.41 | pEC50 (SW1417, SW1417): 8.19 | pEC50 (SW1573, SW 1573): 7.69 | pEC50 (SW1783, SW 1783): 7.79 | pEC50 (SW1990, SW 1990): 8.06 | pEC50 (SW-620, SW620): 8.10 | pEC50 (T47D, T-47D): 7.98 | pEC50 (T84, T84): 7.92 | pEC50 (T98G): 8.02 | pEC50 (T-24, T24): 8.01 | pEC50 (TC-71, TC-71): 7.94 | pEC50 (TE-4): 8.23 | pEC50 (TE-6, TE-6): 7.36 | pEC50 (TE-10, TE-10): 7.95 | pEC50 (TE-11, cell line TE-11): 7.54 | pEC50 (TE-15, cell line TE-15): 7.78 | pEC50 (TEN): 8.00 | pEC50 (TF-1, TF-1): 8.78 | pEC50 (THP-1, THP-1): 8.18 | pEC50 (TOV21G, cell line TOV-21G): 8.37 | pEC50 (TOV112D, TOV-112D): 7.54 | pEC50 (TT2609-C02): 7.71 | pEC50 (U266B1): 8.47 | pEC50 (U-118-MG, U-118 MG): 8.11 | pEC50 (U-251, U-251 MG): 8.16 | pEC50 (U-937, U-937): 8.24 | pEC50 (UACC-62, UACC-62): 7.71 | pEC50 (UACC-257, UACC-257): 7.96 | pEC50 (UMUC3, UM-UC-3): 7.82 | pEC50 (VM-CUB-1, VM-CUB1): 7.99 | pEC50 (VMRC-RCW): 8.28 | pEC50 (WM 266-4, WM-266-4): 7.61 | pEC50 (WM793, WM-793): 7.81 | pEC50 (WM983B, WM-983B): 8.06 | pEC50 (WM-88): 8.11 | pEC50 (WM-115, WM-115): 8.20 | pEC50 (WM-1799, WM1799): 8.13 | pEC50 (WSUDLCL2, WSU-DLCL2): 8.38 | pEC50 (YAPC): 7.64 | pEC50 (YKG-1, YKG1): 8.14 | pEC50 (YMB-1): 7.79 | pEC50 (Z-138, cell line Z-138): 8.24 | pEC50 (ZR-75-1, ZR-75-1): 7.68 | pEC50 (ZR-75-30, ZR-75-30): 7.99 | pEC50 (cell line AGS): 8.03 | pEC50 (cell line BDCM): 8.10 | pEC50 (cell line EB1): 8.19 | pEC50 (cell line EB2): 8.19 | pEC50 (cell line GCT): 7.72 | pEC50 (cell line GI-1): 8.05 | pEC50 (cell line H4): 7.94 | pEC50 (cell line HH): 8.52 | pEC50 (cell line HuG1-N): 8.74 | pEC50 (cell line JHH-5): 7.77 | pEC50 (cell line KS-1): 8.00 | pEC50 (cell line KURAMOCHI): 7.51 | pEC50 (cell line LC-1/sq-SF): 7.73 | pEC50 (cell line LP-6): 7.99 | pEC50 (cell line MEL-HO): 8.28 | pEC50 (cell line MJ): 8.55 | pEC50 (cell line MOG-G-UVW): 7.70 | pEC50 (cell line Mel285): 8.09 | pEC50 (cell line NCI-H2330): 7.49 | pEC50 (cell line OMM2.3): 7.92 | pEC50 (cell line OMM2.5): 7.66 | pEC50 (cell line PC-3): 7.85 | pEC50 (cell line RERF-LC-MS): 7.38 | pEC50 (cell line RKO): 8.07 | pEC50 (cell line RL): 8.49 | pEC50 (cell line T778): 7.73 | pEC50 (cell line TE 617.T): 8.16 | pEC50 (cell line TE-1): 7.81 | pEC50 (cell line TE-5): 8.10 | pEC50 (cell line VMRC-RCZ): 8.07 | pEC50 (cell line WS1): 7.75 | AMAX (Hs 611.T): -95.5359 | AMAX (Hs 729): -96.5684 | AMAX (Hs 936.T): -95.7878 | AMAX (Hs 940.T): -97.1382 | AMAX (IGR-1): -97.3166 | AMAX (JHOM-1): -95.2005 | AMAX (JVM-3): -96.4391 | AMAX (KARPAS-620): -98.4285 | AMAX (KCL-22): -97.2427 | AMAX (KHM-1B): -96.7668 | AMAX (KLE): -91.799 | AMAX (KMS-28BM): -96.7467 | AMAX (KO52): -96.777 | AMAX (KU812): -97.0553 | AMAX (KYM-1): -96.8984 | AMAX (KYO-1): -96.2465 | AMAX (Ki-JK): -96.7338 | AMAX (L-363): -96.7867 | AMAX (LAMA-84): -97.7452 | AMAX (LCLC-97TM1): -96.2648 | AMAX (LCLC-103H): -95.0382 | AMAX (LMSU): -95.8427 | AMAX (LU99): -96.2849 | AMAX (LXF-289): -97.2241 | AMAX (Li-7): -96.9283 | AMAX (MB 157): -95.9545 | AMAX (MHH-NB-11): -96.8993 | AMAX (MOLM-16): -96.6028 | AMAX (MOLP-8): -96.4824 | AMAX (MONO-MAC-1): -98.0152 | AMAX (MONO-MAC-6): -96.8971 | AMAX (NCI-H28): -96.1421 | AMAX (NCI-H841): -95.8407 | AMAX (NCI-H1184): -95.7721 | AMAX (NCI-H1341): -97.2357 | AMAX (NCI-H1869): -96.9482 | AMAX (NCI-H2073): -96.9774 | AMAX (NOMO-1): -95.3675 | AMAX (OC 316): -96.5256 | AMAX (OCI-AML2): -96.7921 | AMAX (OCI-AML3): -95.7952 | AMAX (OCI-AML5): -97.923 | AMAX (OCI-M1): -95.2925 | AMAX (ONCO-DG-1): -96.4992 | AMAX (OS-RC-2): -96.3701 | AMAX (OUMS-23): -95.8674 | AMAX (OV7): -92.7444 | AMAX (P31/FUJ): -96.7178 | AMAX (PA-TU-8988S): -97.262 | AMAX (PE/CA-PJ41 (clone D2)): -95.4895 | AMAX (RI-1): -96.2187 | AMAX (RMUG-S): -96.7615 | AMAX (RVH-421): -95.9743 | AMAX (SF126): -95.9565 | AMAX (SK-N-SH): -96.5195 | AMAX (SNU-216): -96.337 | AMAX (SW620): -96.6127 | AMAX (SW837): -95.7546 | AMAX (SW948): -95.7047 | AMAX (SW 1783): -94.9618 | AMAX (T84): -98.3103 | AMAX (T98G): -96.5841 | AMAX (T-47D): -97.6577 | AMAX (THP-1): -96.3023 | AMAX (U-118 MG): -95.817 | AMAX (UACC-257): -95.0265 | AMAX (VMRC-RCW): -96.9199 | AMAX (YMB-1): -91.0668 | Amax (high-concentration effect level) (across all cell lines of the panel, 72 h): −95% to −100 | AMAX (all cell lines of a selection from the panel (Fig. 3b)): ≤ −95%
